# Assay results reported in US20140170159A9, “Conditionally active anti-epidermal growth factor receptor antibodies and methods of use thereof” (priority 2012, published 2014).
# Marks after values point to notes of the source that are not given here.
# How the values were obtained:
# A431 xenograft tumors [1] = test: A431 xenograft tumor growth, Cetuximab and cisplatin combination; assay type: in vivo, male nude mice; conditions: day 14
# Procedure: Specifically, the test article(s) were administered on days 0, 4, 7, 11, and 14.
# Tumor growth, measured as tumor volume (mm^3), was determined on days—1, 4, 7, 11 and 14 using digital calipers and calculation as described in Example 8. Tumor growth inhibition (TGI) for the treatment groups was calculated using the formula: % TGI=[1−(TB−TA)/(CB−CA)]×100; where TB is the average tumor volume (mm^3) in the treatment group at day 14, TA is the average tumor volume (mm^3) in the treatment group the day before the first treatment (day—1), CB is the average tumor volume in the vehicle only control group at day 14, and CA is the average tumor volume in the vehicle only control group the day before the first treatment (day—1) (see, e.g., Teicher B A and Andrews P A: Anticancer Drug Development, Guide: Preclinical Screening, Clinical Trials and Approval, 2nd edition.
# A431 xenograft tumors [2] = test: A431 xenograft tumor growth, Cetuximab vs. HC-Y104D and cisplatin; assay type: in vivo, male nude mice; conditions: 5 mg/kg cisplatin IV twice per week, day 14
# Procedure: Subcutaneous A431 xenograft tumors were established in male nude mice as described above. […] Specifically, the test article(s) were administered on days 0, 4, 7 and 11. Tumor volume (mm^3) was determined on days—1, 4, 7, 11 and 14 as described previously.
smiles,measurement,setting,value
N.N.[Cl][Pt][Cl] [cisplatin],tumor growth inhibition (TGI),A431 xenograft tumors [1]; 5 mg/kg cisplatin alone,34.2%
same,% Tumor Growth Inhibition,A431 xenograft tumors [1]; Cisplatin 5 mg/kg ([…]) IV twice per week,34.2* %
same,% Tumor Growth Inhibition,A431 xenograft tumors [1]; Cisplatin […] (0.04 mg/mouse) IV twice per week,16.7%
same,reduction in tumor growth,A431 xenograft tumors [2],about 45%
